Experimental findings from patent US4235776A, “Tetrahydro-2H-benzo[c]pyrroles” (Eli Lilly and Company, priority 1979, dated 1980) are described below.

In data set [1] the test system is 6-hydroxydopamine-lesioned rats. Nature of the data set: turning behavior in 6-hydroxydopamine-lesioned rats (dopamine agonist activity). Particulars: 1 mg/kg intraperitoneal. The class given is in vivo, rat. The text has this: In this test, nigro-neostriatal-lesioned rats are employed prepared by the procedure of Ungerstedt and Arbuthnott, Brain Res, 24, 485 (1970). A compound having dopamine agonist activity upon injection causes the rats to turn in circles contralateral to the side of the lesion. After a latency period, which varies from compound to compound, the number of turns is counted over a 15-minute period.

A further data set has as its system prolactin. The experiment in a line: inhibition of prolactin secretion in reserpine-treated male rats (serum prolactin). The class given is in vivo, Sprague-Dawley rat. Particulars: intraperitoneal, one hour after treatment, reserpine-pretreated rats. The procedure:
The compounds of this invention are also useful as prolactin inhibitors and as such can be employed in the treatment of inappropriate lactation, such as postpartum lactation, and of galactorrhea.
Adult male rats of the Sprague-Dawley strain weighing about 200 g. were housed in an air-conditioned room with controlled lighting (lights on 6 a.m.-8 p.m.) and fed lab chow and water ad libitum. Each rat received an intraperitoneal injection of 2.0 mg. of reserpine in aqueous suspension 18 hours before administration of the isoindole. The purpose of the reserpine was to keep prolactin levels uniformly elevated. The compounds under test were dissolved in water and were injected intraperitoneally at doses ranging from 5 mg/kg down to 50 mcg/kg. Each compound was administered at each dose level to a group of 10 rats, and a control group of 10 intact males received an equivalent amount of solvent. One hour after treatment all rats were killed by decapitation, and 150 μl aliquots of serum were assayed for prolactin.
The difference between the prolactin level of the treated rats and prolactin level of the control rats divided by the prolactin level of the control rats gives the percent inhibition of prolactin secretion attributable to the compounds of this invention. In the table, column 1 gives the name of the compound; and columns 2-4 the percent prolactin inhibition at the given dose level.

Another data set deals with mouse. Nature of the data set: intraperitoneal toxicity in the mouse. The class given is in vivo. The procedure: In using the compounds of this invention to inhibit prolactin secretion or to treat Prakinson's syndrome or for other pharmacologic action, a pharmaceutically active compound according to Formula I above, or a salt thereof with a pharmaceutically-acceptable acid, is administered to a subject suffering from Parkinsonism or in need of having their prolactin level reduced in an amount effective to alleviate some of the symptoms of Parkinsonism or to reduce an elevated prolactin level. Oral administration is preferred. If parenteral administration is used, the injection is preferably by the subcutaneous route using an appropriate pharmaceutical formulation. […] In particular, with intravenous or intramuscular administration, a water soluble pharmaceutically-acceptable salt is employed. For oral administration, a pharmaceutically active compound according to Formula I either as the free base or in the form of a salt thereof can also be mixed with standard pharmaceutical excipients and loaded into empty telescoping gelatin capsules or pressed into tablets. The oral dosage range is from about 0.01 to 10 mg/kg of mammalian weight and the parenteral dose range from about 0.0025 to 2.5 mg/kg of mammalian weight.

Structures can show the parent of a compound that is named as a salt.

Regarding `CCCN(CCC)C1CCc2c[nH]cc2C1` (racemic) [dl-5-di-n-propylamino-4,5,6,7-tetrahydro-2H-benzo[c]pyrrole maleate], the “rats exhibiting turning behavior” value in data set [1] is listed as 1/3. The “average turns per rat” value in data set [1] (turns counted over a 15-minute period after latency) is 34 turns per rat. The “Percent Inhibition of Prolactin at a Given Dose Level” value is 91% with prolactin (5 mg/kg), 20% in the data set on prolactin (50 mcg/kg) and 47% with prolactin (500 mcg/kg). The lethality result in the data set on mouse (dosages of 100-300 mg/kg, intraperitoneal) is recorded as “fatal”. Moreover, the deaths entry with mouse (intraperitoneal dosages of 10-30 mg/kg) is reported as “no deaths”.
On to `CCN(CC)C1CCc2c[nH]cc2C1` (racemic) [dl-5-diethylamino-4,5,6,7-tetrahydro-2H-benzo[c]pyrrole maleate], for which the “Percent Inhibition of Prolactin at a Given Dose Level” value worked out at 23% in the data set with prolactin (5 mg/kg) and 25% with prolactin (500 mcg/kg).
